From patent US11932653B2, “Lycorine derivative, and pharmaceutical composition and use thereof” (priority 2018, dated 2024)
pEC50: −log10 of the molar value. “And” between values parts separate entries of the source, which are not always exact repeats. Identical values can stand only once.

What was measured:
[1] = Toxicity test in ICR mice after single administration by intraperitoneal injection; type: in vivo
Method: 22 10-day-old ICR mice were randomly assigned to 17 groups, and given Compound 6 once by intraperitoneal injection at a dosage of 0.625, 1.25, 2.5, 5, 10, 20, 40, 80, 100, 160, 200, 250, 300, 470, 500, 1000, or 2000 mg/kg. 1-2 animals were included in each group, and the male and female mice were administered alternately. […] The dead animals are necropsied and the changes in main organs were observed. On day 1 after administration, the weight of the animals in the 160 mg/kg group is decreases by 0.3 g, and the weight of the animals in the 0.625, 1.25, 2.5, 5, 10, 20, 40, 80, 100 mg/kg group is increased, compared to the day of administration. Under the conditions in this experiment, ICR mice were given Compound 6 once by intraperitoneal injection. The minimum lethal dose was 200 mg/kg and the maximum tolerated dose was 160 mg/kg.
24 10-day-old ICR mice were randomly assigned to 19 groups, and given Compound 6 once by intraperitoneal injection at a dosage of 0.625, 1.25, 2.5, 5, 10, 20, 40, 60, 80, 100, 120, 136, 160, 270, 320, 500, 690, 1000, or 2000 mg/kg. 1-2 animals were included in each group, and the male and female mice were administered alternately. […] The dead animals are necropsied and the changes in main organs were observed. […] Under the conditions in this experiment, ICR mice were given Compound 20 once by intraperitoneal injection.

[2] = system: EV71; test: In-vitro experiment against EV71 virus (RD cells, MTT); type: cell-based; settings: for pEC50: Enterovirus A, RD cells infected with 100x TCID50 EV71, compound added after 2 hrs, MTT at 48 hrs; for SI: selectivity index, EV71, RD cells
Method: (§1) RD cells were seeded into a 96-well plate (10^4 cells/well), and infected with 100× TCID50 of EV71 viruses. After 2 hrs, various concentrations of the derivative were added. […] Uninfected cells were also given various concentrations of the derivative to determine the CC50.

[3] = system: Salmonella typhimurium TA100; test: Test of reverse mutation in histidine-deficient Salmonella typhimurium, strain TA100; type: cell-based; settings: for Number of colonies TA100(−S9): solvent control 165.3 ± 10.7; for Number of colonies TA100(+S9): solvent control 170.7 ± 10.9
Method: (§2) The mutagenic effect of Compound 6 on the strains TA100 and TA102 was detected by determining the reverse mutation in histidine-deficient Salmonella typhimurium by pre-loaded culture dish method. The dosage of Compound 6 is 8, 40, 200, 1000, or 5000 μg/dish under activated and non-activated conditions, and the mutagenic effects on TA100 and TA102 were tested.

[4] = Cytotoxicity in uninfected RD cells (CC50, MTT); type: cell-based; settings: human, Table 1
Method: as §1
(§3) RD cells were seeded into a 96-well plate (10^4 cells/well), and infected with 100×TCID50 of CAV16 viruses. After 2 hrs, various concentrations of the derivative were added. […] Uninfected cells were also given various concentrations of the derivative to determine the CC50.

[5] = system: Salmonella typhimurium TA102; test: Test of reverse mutation in histidine-deficient Salmonella typhimurium, strain TA102; type: cell-based; settings: for Number of colonies TA102(−S9): solvent control 225.0 ± 7.5; for Number of colonies TA102(+S9): solvent control 236.5 ± 5.0
Method: as §2

[6] = system: CAV16; test: In-vitro experiment against Coxsackievirus A16 (CAV16) (RD cells, MTT); type: cell-based, Coxsackievirus Virus A16 (CAV16); settings: for pEC50: Coxsackievirus, RD cells infected with 100x TCID50 CAV16, compound added after 2 hrs, MTT at 48 hrs; for SI: selectivity index, CAV16, RD cells
Method: as §3

[7] = Pharmacokinetic experiment in plasma; type: in vivo; settings: male ICR mice, Compound 6 1.5 mg/kg ip
Method: Male ICR mice weighing 20-22 g were intraperitoneally injected with Compound 6 (1.5 mg/kg), and then blood was taken from the orbit at 5 min, 10 min, 15 min, 30 min, 1 h, 2 h, 4 h, 6 h, 8 h, 12 h, and 24 h. The heparin anticoagulant was added, placed on ice, and centrifuged at 7000 r/min for 7 min. The plasma was separated for use. 60 μl of acetonitrile was added to 20 μL of the plasma sample obtained after administration, to precipitate the protein. After high-speed centrifugation at 13300 r/min for 7 min, 60 μl of the supernatant was taken and centrifuged at 13300 r/min for 4 min. 5 μl of the supernatant was taken for UPLC/MS analysis. Plasma pharmacokinetics was analyzed by Winnolin software and fitted by a non-compartmental model.
Male ICR mice weighing 20-22 g were intraperitoneally injected with Compound 20 (1.5 mg/kg), and then blood was taken from the orbit at 5 min, 10 min, 15 min, 30 min, 1 h, 2 h, 4 h, 6 h, 8 h, 12 h, and 24 h. The heparin anticoagulant was added, placed on ice, and centrifuged at 7000 r/min for 7 min. The plasma was separated for use. 60 μl of acetonitrile was added to 20 μL of the plasma sample obtained after administration, to precipitate the protein. […] Plasma pharmacokinetics was analyzed by Winnolin software and fitted by a non-compartmental model.

[8] = system: EV71; test: Therapeutic effect on EV71-infected mice; type: in vivo, ICR mice; settings: 7 days
Method: 10-day-old SPF grade ICR mice (female:male 1:1) were used. A placebo group and a treatment group with Compound 1 were set, each group having 10 mice. The mice were infected with the virus by intraperitoneal injection. 2 hrs after infection, the mice were administered by intraperitoneal injection. The dosage of Compound 1 was set to 1 mg/kg body weight/day. The mice in the placebo group were injected with the same dose of normal saline, and the mice in each group were administered once a day for consecutive 7 days. From the day of virus infection, the observation was made twice a day for 14 days. The weight, symptoms and survival rate of the mice were recorded.

[9] = 8-5000 μg/dish, activated and non-activated conditions

With `O=C(COc1ccc(F)cc1)OC1C(O)C=C2CCN3Cc4cc5c(cc4C1C23)OCO5` (stereo not shown) [Compound 6, 1-(4-fluoro-phenoxyacetyl)-lycorine] the minimum lethal dose ([1]; 10-day-old ICR mice, single intraperitoneal injection, observed 14 days) was 200 mg/kg, the MTD at 14 days ([1]; both sexes, ICR, mouse, in vivo, ip) was 160 mg/kg and the “Weight on day 1 after administration” value ([1]; mouse, in vivo, ip, 0.625 mg/kg) was 7.3. The “Weight on day 1 after administration” value ([1]; mouse, in vivo, ip, 5 mg/kg) was 6.9, the “Weight on day 1 after administration” value ([1]; mouse, in vivo, ip, 10 mg/kg) was 6.5 and the “Weight on day 1 after administration” value ([1]; mouse, in vivo, ip, 20 mg/kg) was 7.5. The “Weight on day 1 after administration” value ([1]; mouse, in vivo, ip, 40 mg/kg) was 7.7, the “Weight on day 1 after administration” value ([1]; mouse, in vivo, ip, 80 mg/kg) was 7.3 and the “Weight on day 1 after administration” value ([1]; mouse, in vivo, ip, 100 mg/kg) was 7.3. For the same compound, the “Weight on day 1 after administration” value ([1]; mouse, in vivo, ip, 160 mg/kg) was 6.3, the pEC50 [2] was 5.90 and the SI [2] was 103.30. The “Number of colonies TA100(−S9)” value ([3]; 8 μg/dish) was 152.7 ± 9.4, the “Number of colonies TA100(+S9)” value ([3]; 8 μg/dish) was 159.3 ± 11.3 and the “Number of colonies TA100(−S9)” value ([3]; 40 μg/dish) was 141.8 ± 5.9. For the same compound, the “Number of colonies TA100(+S9)” value ([3]; 40 μg/dish) was 158.7 ± 10.7, the “Number of colonies TA100(−S9)” value ([3]; 200 μg/dish) was 152.7 ± 9.5 and the “Number of colonies TA100(+S9)” value ([3]; 200 μg/dish) was 158.5 ± 11.5. The “Number of colonies TA100(−S9)” value ([3]; 1000 μg/dish) was 113.0 ± 14.2, the “Number of colonies TA100(+S9)” value ([3]; 1000 μg/dish) was 127.7 ± 10.1 and the “Number of colonies TA100(−S9)” value ([3]; 5000 μg/dish) was 110.5 ± 7.8. For the same compound, the “Number of colonies TA100(+S9)” value ([3]; 5000 μg/dish) was 114.7 ± 3.8, the “mutagenic effect on TA100” value [3, 9] was “negative” and the CC50 at 48 h [4] was 131000 nM. For the same compound, the “Number of colonies TA102(−S9)” value ([5]; 8 μg/dish) was 223.0 ± 9.1, the “Number of colonies TA102(+S9)” value ([5]; 8 μg/dish) was 235.0 ± 9.6 and the “Number of colonies TA102(−S9)” value ([5]; 40 μg/dish) was 205.0 ± 14.6. For the same compound, the “Number of colonies TA102(+S9)” value ([5]; 40 μg/dish) was 222.5 ± 9.3, the “Number of colonies TA102(−S9)” value ([5]; 200 μg/dish) was 192.8 ± 18.6 and the “Number of colonies TA102(+S9)” value ([5]; 200 μg/dish) was 208.3 ± 6.8. The “Number of colonies TA102(−S9)” value ([5]; 1000 μg/dish) was 182.3 ± 10.3, the “Number of colonies TA102(+S9)” value ([5]; 1000 μg/dish) was 195.2 ± 8.6 and the “Number of colonies TA102(−S9)” value ([5]; 5000 μg/dish) was 147.2 ± 20.3. The “Number of colonies TA102(+S9)” value ([5]; 5000 μg/dish) was 180.7 ± 11.7 and the “mutagenic effect on TA102” value [5, 9] was “negative”.

Work on `O[C@H]1[C@H]2c3cc4c(cc3CN3CCC(=C[C@@H]1O)[C@H]23)OCO4` [Lycorine] yielded a pEC50 [2] of 5.65, an SI [2] of 46.24 and a pEC50 [6] of 5.80. It also gave an SI [6] of 66.57 and a CC50 at 48 h [4] of 105000 nM.

In the case of “1-(4-fluoro-phenoxyacetyl)-lycorine [Compound 6]”, the t1/2z ([7]; title: metabolite of Compound 6, individual animals 1-3, 1.5 mg/kg) was 25.719 h and 14.311 h and 26.875 h and the “t1/2z Mean ± SD” value ([7]; title: metabolite of Compound 6, mean of 3) was 22.3 ± 6.94 h.

With `O=C(CSc1ccccc1)OC1C(O)C=C2CCN3Cc4cc5c(cc4C1C23)OCO5` (stereo not shown) [Compound 2, 1-phenylthioacetyl-lycorine] the pEC50 [2] was 5.78, the SI [2] was 69.35 and the pEC50 [6] was 6.24. It also gave an SI [6] of 200.73 and a CC50 at 48 h [4] of 114000 nM.

Work on `O=C(COc1ccccc1)OC1C(O)C=C2CCN3Cc4cc5c(cc4C1C23)OCO5` (stereo not shown) [Compound 1, 1-phenoxyacetyl-lycorine] yielded a pEC50 [2] of 5.79, an SI [2] of 72.41 and a pEC50 [6] of 5.92. The SI [6] was 99.80, the CC50 at 48 h [4] was 119000 nM and the mortality rate ([8]; 10-day-old ICR mice infected ip with EV71, 1 mg/kg body weight/day ip, observed 14 days, placebo 100%) was 40%. For the same compound, the “recovery of surviving mice” value ([8]; EV71-infected ICR mice, 1 mg/kg/day ip, after 14 days) was “the surviving mice recover to normal after 14 days” and the “symptoms, weight loss and paralysis” value ([8]; EV71-infected ICR mice, 1 mg/kg/day ip, versus placebo) was “reduced symptoms, and significantly alleviated weight loss and paralysis”.
